# Test results published in patent publication US20070243222A1, “FUNGICIDAL FORMULATION AND METHOD OF USE” (priority 2006, published 2007).
# Experiments:
# [1] = test system: onychomycosis; settings: topical nail lacquer once daily, mild to moderate onychomycosis; combined results of two randomized, controlled trials; cited from earlier work
# [2] = test system: onychomycosis; settings: standard oral treatment; survey Arch Dermatol 134(12):1551-1554, 1998; cited from earlier work
# [3] = test system: Trichophyton rubrum; experiment: inhibition of propagation of Trichophyton rubrum; type: cell-based; settings: acting alone or in combination
# From the text: An additional iron chelating agent, useful in the present invention, is an iron-chelating agent consisting of ciclopirox in conjunction with a light-blocking agent. Particularly, preferred iron chelating agents useful in the present invention are zinc pyrithione and Chelex-100. Pyrithione is 2-pyridinethiol-1-oxide and is a “bidentate ligand” that has the capacity to complex with metals other than zinc, such as iron. Chelex-100 is a styrene divinylbenzene copolymer containing paired iminodiacetate ions, which act as chelating groups for binding polyvalent metal ions.
molecule,measurement,setting,value
Cc1cc(C2CCCCC2)n(O)c(=O)c1 [ciclopirox],"complete resolution, share of treated patients",[1],approximately 7%
CN(C/C=C/C#CC(C)(C)C)Cc1cccc2ccccc12 [terbinafine],"disease-free nails, share of cases",[2],35-50%
zinc pyrithione,inhibitory effect on the propagation of Trichophyton rubrum,[3],potent inhibitory effect
